Reference: patent US20220323471A1 (priority 2019, published 2022)
Entries after “also recorded” stand apart in the source; their conditions may differ.

Columns and labels:
[1] = system: HT1080, CHME3, VERO cells; assay: MTT cell viability assay; assay type: cell-based, human and monkey; details: human or monkey cells (HT1080, CHME3, VERO); 48 hours
Experimental: Cell viability was determined by measuring the reduction of the tetrazolium dye MTT [3-(4,5-dimethylthiazol-2-yl)-2,5-diphenyltetrazolium bromide] to its insoluble form formazan. We treated 4×10^3 cells/well in a 96-well plate with serial dilutions of the indicated drugs. Human and monkey cells were incubated with DGP, diphyllin, or 6-deoxy-D-glucose for 48 hours at 37° C. After the incubation period, 10 μl MTT solution (5 mg/mL) was added to each well for an additional 4 hours at 37° C. Finally, the media was removed and dimethyl sulfoxide was added (200 μl/well) according to the manufacturer's instructions. The optical density was measured at 570 nm using a microplate reader. Experiments were performed in triplicates and standard deviations are shown. Mock-treated cells represent 100% viability.

DENV1-RVP = assay type: cell-based, dengue virus; details: VERO cells; DGP 1 μM; NH4Cl 20 mM
ZIKV MR766 = assay: qRT-PCR quantification of ZIKV RNA in cells; assay type: cell-based, Zika virus; details: VERO and HT1080 cells; MOI 1; 48 hours; increasing concentrations
Experimental: To corroborate these findings, quantitative real-time PCR (qRT-PCR) was used to quantify viral RNA using specific primers for the ZIKV genome (FIG. 3A). VERO and HT1080 cells were challenged with ZIKV at an MOI of 1 in the presence of DGP at the indicated concentrations. At 48 hours post-infection, ZIKV RNA was quantified by qRT-PCR, and normalized to Actin. […] Inhibition of viral RNA production correlated with the inhibition of viral infection (compare FIG. 3A with FIG. 3B).
To detect viral copies of ZIKV and Sendai Virus (SeV) by qRT-PCR, cells were seeded in 24-well plates, with or without DGP treatment, and infected with the virus at the indicated MOI for 48 h. After the incubation period, total RNA from HT1080, VERO, and CHME3 cells was isolated and purified using Trizol (Invitrogen). For detection of ZIKV viral load in brain and spleen, 3 mice were sacrificed at 6 days post-infection and total RNA was extracted from the brain and spleen. For cDNA synthesis, 1 ng of total RNA was reverse transcribed. The reaction mixture included 1 mM of deoxyribonucleotide phosphates (dNTPs), 2 nM of the specific reverse primer of ZIKV or SeV, 1× M-MULV buffer, 10 U M-MuLV RT (BioLabs), and 2 U of RNase Inhibitor. The reaction mixture was incubated for 1 hour at 42° C. followed by 20 min at 65° C. to inactivate the enzyme. […]
ZIKV RNA levels were measured using real-time PCR. […]

ZIKV strain MR766 = assay: ZIKV-induced mortality in Ifnar1−/− mice; assay type: in vivo, mouse (C57BL/6 Ifnar1−/−)
ZIKV = ZIKV viral load in brain and spleen of challenged mice (qRT-PCR); assay type: in vivo, mouse; details: 1 mg/kg; six days post-challenge
Experimental: The effect of DGP on viral replication in the brain and spleen was investigated in ZIKV-challenged mice (FIG. 13). To this end, viral loads were determined by qRT-PCR using specific primers against the ZIKV genome six days post-challenge.
To detect viral copies of ZIKV and Sendai Virus (SeV) by qRT-PCR, cells were seeded in 24-well plates, with or without DGP treatment, and infected with the virus at the indicated MOI for 48 h. After the incubation period, total RNA from HT1080, VERO, and CHME3 cells was isolated and purified using Trizol (Invitrogen). For detection of ZIKV viral load in brain and spleen, 3 mice were sacrificed at 6 days post-infection and total RNA was extracted from the brain and spleen. For cDNA synthesis, 1 ng of total RNA was reverse transcribed. The reaction mixture included 1 mM of deoxyribonucleotide phosphates (dNTPs), 2 nM of the specific reverse primer of ZIKV or SeV, 1× M-MULV buffer, 10 U M-MuLV RT (BioLabs), and 2 U of RNase Inhibitor. The reaction mixture was incubated for 1 hour at 42° C. followed by 20 min at 65° C. to inactivate the enzyme. For actin detection, Oligo-dT was used to reverse transcribe total RNA.

COc1cc2c(OC3OC(C)C(O)C(O)C3O)c3c(c(-c4ccc5c(c4)OCO5)c2cc1OC)C(=O)OC3 (centres unmarked) [DGP, 6-deoxyglucose-diphyllin]
toxicity at concentrations required to inhibit ZIKV infection (MTT) [1]: non-toxic; also recorded: not toxic | DENV1 RVP infection (DENV1-RVP): almost undetectable | synthesis of viral RNA (normalized to Actin) (ZIKV MR766): completely inhibited | percent survival (ZIKV strain MR766; 0.1 mg/kg and 0.2 mg/kg dose (FIG. 8A)): improved | body weight of surviving mice (ZIKV strain MR766; 0.2 mg/kg and 1 mg/kg (FIGS. 8B and 8D)): able to regain lost body weight | survival (ZIKV strain MR766; 1 mg/kg (FIG. 8C)): 100% | time at which group succumbed to viral infection (ZIKV strain MR766; ZIKV + 0.1 mg/kg, footpad co-injection): 10 days post-challenge | appearance of symptoms (ZIKV strain MR766; ZIKV + 0.2 mg/kg, compared with ZIKV group): delay in the appearance of symptoms | survival (ZIKV strain MR766; ZIKV + 0.2 mg/kg, footpad co-injection): some mice survived until day 14 | disease symptoms (ZIKV strain MR766; ZIKV + 1 mg/kg): did not show any obvious disease symptoms | body weight (ZIKV strain MR766; ZIKV + 1 mg/kg compared to PBS + 1 mg/kg of DGP): lower body weights | mice surviving for the length of the experiment (ZIKV strain MR766; ZIKV + 1 mg/kg, 15 post-challenge days, 6 mice/group): all six mice | viral replication in the brain (ZIKV): completely inhibited | viral replication in the spleen (ZIKV): low levels of viral replication were detected
